# Source: patent publication US9724422B2, “Human lactoferrin derived peptide for use as an antigen masking agent” (Evonik Roehm GmbH, priority 2010, dated 2017)
# Key:
# [1] = Zeta potential of particles measured with Zetasizer; type: physicochemical; conditions: PBS pH 7.4, FIG. 2
# Experimental: (§1) Malvern Zetasizer Nano ZS90; Size parameters:
# (§2) Material: Protein RI: 1.45 Absorption: 0.00, Dispersant: Water 25° C.: 0.8872 cP RI: 1.330; 37° C.: 0.6864 cP RI: 1.330, Cell: DTS 1060C: Clear disposable zeta cell
# (§3) Measurement: Automatic 3 runs, positioning method: seek for optimum position, automatic attention selection, analysis model: general purpose
# Zeta parameters: Dielectric constant: 78.5 at 25° C. and 74.4 at 37° C.
# Model: Smoluchowski F(KA)value: 1.5, measurement: automatic 3 runs Automatic attention selection
# (§4) Peptide oxidation: The peptide was dissolved to a concentration below 1 mM (2.75 mg/mL) in phosphate buffered saline (PBS), pH 7.4. (Ph. Eur.), e.g., 5 mg in 10 mL (=0.5 mg/mL). The solution was purged with pure oxygen for 5 minutes at 37° C. Incubate for 2 h at 37° C.
# (§5) For the bacterial lysate dilution 1 mL of bacterial cell lysate were diluted up to 10 mL with PBS pH 7.4. (Ph. Eur.).
# (§6) Attachment to the lysate particles was achieved by adding 1 ml bacterial lysate (=1.2 mg E. coli) with 0.097714286 mg hLF.
# (§7) 20 μL of a 0.5 mg/mL solution of peptide were added to 1 mL of the previously diluted vaccine (0.12 mg/mL) and incubated 2 hours under low stirring, 100-150 rpm, at 4° C., preventing any foam building
# [2] = Particle size (diameter) measured with Zetasizer; type: physicochemical; conditions: PBS pH 7.4, FIG. 1
# Experimental: as §1, §2, §3, §4, §5, §6, §7
# IgG immuno response = assay: Total IgG by ELISA in rats treated with bacterial lysate, hLf fragment or their combination; type: in vivo
# Experimental: Bacterial lysate: Klebsiella pneumoniae CECT 141; 12.000 million bacteria/mL (ten times the final concentration), Standard non-glycerinated formulation, without phenol hLF fragment, […] (SEQ ID NO: 1) oxidised form, as lyophilisate product; dosed in vials of 50 mg each, in 25 mL vials, to be reconstituted and used as stock solution for the length of the assay. Once reconstituted, keep cooled (4° C.)
# Reconstitution of the hLF stock solution was performed by reconstitution of the 50 mg hLF fragment in a vial by addition of 20 mL of PBS. It was ensured a complete, proper reconstitution to a clear, homogeneous, particle-free solution. The vial was gently shaken by repeated inversion of the closed vial. The result was the hLF-stock solution for the trial: nominal concentration 2.5 mg/mL.
# The hLF dilution for the animal trial was performed daily. For this 1 mL of the reconstituted hLF stock solution were transferred into a new 25 mL vial, followed by adding 21.5 mL of PBS and carefully mixing by repeated inversions of the closed vial to avoid foam formation. The result was the daily stock dilution, nominal concentration 0.1 mg/ml.
# 4.5 ml of the daily hLf dilution were transferred to a suitable vial (5 ml capacity or bigger), followed by adding 0.5 ml of the 12,000 million bacteria/mL bacterial lysate, and carefully mixing by repeated inversions of the closed vial to avoid foam formation. The result was 5 ml of A+B vaccine, 1200 million bacteria/ml, 0.1 mg hLf fragment/ml, ensuring the ratio 12:1.
# 4.5 ml of the daily hLf dilution were transferred to a suitable vial (5 ml capacity or bigger), followed by adding 0.5 ml of PBS and carefully mixing by repeated inversions of the closed vial and avoid foam formation. The result was 5 ml of 0.1 mg/ml hLf fragment solution.
# 0.5 ml of the bacterial lysate (12,000 million bacteria/ml) were transferred to a suitable vial (5 ml capacity or bigger), followed by adding 4.5 ml of PBS, and carefully mixing by repeated inversions of the closed vial and avoid foam formation. […]
# The parameter to be measured is total IgG. […]
# Albumin = biological target: T1, Albumin (Bos taurus, UniProt P02769); assay: Diffusion kinetics of hLf fragment mixed with protein, time-correlation confocal microscopy with fluorescent labels; type: binding; conditions: protein I
# T1 construct: purchased
# T1 sequence (P02769 25-607): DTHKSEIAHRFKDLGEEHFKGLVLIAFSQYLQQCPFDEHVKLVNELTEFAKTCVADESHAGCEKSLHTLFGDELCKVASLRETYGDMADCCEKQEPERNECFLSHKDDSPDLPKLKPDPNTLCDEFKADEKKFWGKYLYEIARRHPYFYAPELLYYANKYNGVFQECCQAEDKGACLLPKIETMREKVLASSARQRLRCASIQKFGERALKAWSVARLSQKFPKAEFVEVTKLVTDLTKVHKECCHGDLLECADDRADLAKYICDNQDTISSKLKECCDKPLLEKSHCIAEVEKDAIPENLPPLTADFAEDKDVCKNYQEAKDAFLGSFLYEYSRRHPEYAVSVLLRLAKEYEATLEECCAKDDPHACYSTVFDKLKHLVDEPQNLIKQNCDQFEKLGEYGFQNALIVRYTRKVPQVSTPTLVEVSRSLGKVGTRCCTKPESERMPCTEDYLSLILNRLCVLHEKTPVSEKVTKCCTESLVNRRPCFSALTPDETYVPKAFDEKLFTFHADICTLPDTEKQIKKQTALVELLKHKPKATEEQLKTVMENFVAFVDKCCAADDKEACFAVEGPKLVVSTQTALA
# Excerpt: (§8) 3 different classes of cell-culture and blood derived naturally glycosylated proteins were mixed together in a native, that is, physiologically similar standard electrolyte buffer with the concentration shown in the Table with the same 22-mer of the human-lactoferrin peptides described above (using Sequence […] (SEQ ID NO: 1)).
# (§9) The protein I is Albumin a blood protein fraction, known in its recombinant human version or as blood-product, protein II is a selective IgG antibody. Both from commercial sources. hLf as the reference moves as “free” in the volume element of the focus of the microscope whereas about 4% or 15% respectively of the fragment are unspecifically bound and moves slower.
# IgG antibody = assay: as above; type: binding; conditions: protein II, selective IgG antibody
# Excerpt: as §8, §9
# [3] = Diffusion kinetics of free hLf fragment (reference), time-correlation confocal microscopy with fluorescent labels; type: physicochemical; conditions: hLf alone as reference
# Excerpt: as §8, §9
sequence,measurement,setting,value
"KCFQWQRNMRKVRGPPVSCIKR (listed as Homo sapiens) [hLf, human lactoferrin derived peptide, 22-mer, used as antigen masking agent]",Zeta potential (surface charge of particles),[1],overall positive charge
same,Particle size (aggregation),[2],Aggregation is prone to occur
same,Variation in the IgG levels over time,"IgG immuno response; independent of the mode of administration (i.p. or intragastric), days 0-27",does not appear to induce any effect on IgG levels over time
same,IgG levels compared with hLf+extract group,"IgG immuno response; intragastric, day 6",superior IgG levels
same,IgG levels compared with control group,"IgG immuno response; intraperitoneal, day 6 to day 27",no statistically significant difference
same,fragment unspecifically bound (moves slower),Albumin,about 4%
same,fragment unspecifically bound (moves slower),IgG antibody,~15%
same,TauD1,[3],33 us
same,TauD2,[3],1419 us
same,f1,[3],99%
